{"source": "patent US20150031996A1", "about": "“SEMICONDUCTING POLYMER NANOPARTICLES AS PHOTOACOUSTIC MOLECULAR IMAGING PROBES” (The Board of Trustees of the Leland Stanford Junior …, priority 2013, published 2015)", "assay": "Kinetic study of ROS-mediated degradation of IR775S (fluorescence at 800 nm)", "assay_type": "physicochemical", "conditions": "presence of peroxynitrite (ONOO^−) and hypochlorite (ClO^−), 2 μM, 1×PBS pH=7.4", "description": "FIGS. 26A and 26B illustrate a kinetic study of ROS-mediated degradation of 1R7755 by detecting its fluorescence decrease at 800 nm after addition of ROS.\nFIG. 26B illustrates a time course of the fluorescence of 1R775S at 800 nm after addition of indicated ROS (FIG. 26B top: ONOO^−, ClO^−; FIG. 26B bottom: ^1O2 and H2O2) in 1×PBS (pH=7.4). [1R775]=1 μg/mL. [ROS]=2 μM.", "data": [{"smiles": "CN1C(=CC=C2CCCC(C=CC3=[N+](C)c4ccccc4C3(C)C)=C2SCCC(=O)O)C(C)(C)c2ccccc21.[O-][Cl+3]([O-])([O-])[O-]", "note": "[1R775S, 2-[4′-(β-carboxyethylthio)-7′-(1″,3″,3″-trimethylindolenine)-3′,5′-trimethyleneheptatrien-1-yl]-1,3,3-trimethylindolenium perchlorate]", "values": [{"measurement": "degradation by ROS", "result": "nearly instant degradation"}]}]}
